One series has as its target T1, CYP2C9 (Homo sapiens, UniProt P11712).
T1 construct: from tissue; host or cells: human liver microsomes, mixed-gender pool of 200
As to the kind of experiment: In-vitro CYP inhibition study, CYP2C9. The format is in vitro ADME. Conditions: human liver microsomes, substrate Diclofenac (12 μM). The protocol:
(§1) Incubations were conducted using a cocktail of seven prototypical CYP substrates to ascertain the potential of each test article to inhibit the metabolism of concomitantly administered drugs. A mixed-gender pool of 200 human liver microsomal samples was used for this study. Incubations were conducted at approximately 37° C. in 200 μL incubation mixtures (pH 7.4) containing water, potassium phosphate buffer (50 mM), MgCl2 (3 mM), EDTA (1 mM), an NADPH regenerating system (NADP [1 mM], glucose 6 phosphate [5 mM], glucose 6 phosphate dehydrogenase [1 Unit/mL]), and probe substrate (i.e., a seven substrate cocktail) at the final concentrations indicated in Table 9. Reactions were initiated by the addition of NADPH-regenerating system and were automatically terminated at approximately 5 minutes by the addition of internal standard mixed in stop reagent, acetonitrile. The samples were centrifuged at 920×g for 10 minutes at 10° C. The supernatant fractions were analyzed by LC-MS/MS. To examine its ability to act as a time-dependent inhibitor of CYP enzymes, each test article (at the same concentrations used to evaluate direct inhibition, (i.e. 0, 0.02, 0.06, 0.2, 0.6, 2, 6, 20 μM) was pre-incubated at 37±2° C. with NADPH-fortified human liver microsomes for approximately 30 minutes. The pre-incubations were initiated by the addition of NADPH-regenerating system. After 30 min, probe substrate incubations were initiated by the addition of probe substrate cocktail. Incubations were terminated and samples were analyzed by LC-MS/MS. When inhibition was observed, the data were processed with a LIMS for the determination of IC50 values by utilizing the Levenberg-Marquardt algorithm to perform non-linear regression fitting of the data to the following 4-parameter sigmoidal-logistic IC50 equation:
(§2) As percent of control values are utilized, the minimum value (Min) is set to zero and the maximum value (Max) is set to 100 (or other values, as appropriate). The LIMS calculates an IC50 value only when it lies within the concentration range of the inhibitor studied. Therefore, when an IC50 value falls outside the concentration range studied, the IC50 values are reported to be greater than the highest concentration of the test article evaluated.
(In general: Liver microsomes are vesicles of endoplasmic reticulum, rich in cytochrome P450 enzymes.)

Series [1] can be described thus: Half-life determination in human liver microsomes. Format: in vitro ADME. Conditions: for half-life at 1 μM: human, NADPH; for Half-life, % change relative to ulixertinib: mean. Here is the method:
Human microsomes from a pool of 10 donors was obtained from a commercial source. Microsomes prepared in potassium phosphate buffer were spiked with ulixertinib, Formula 18, Formula 19, and Formula 21 individually in replicates of six at a final concentration of 1 μM. NADPH was used to initiate the experiment; a control of minus NADPH (minus cofactor) was also run in parallel to the human liver microsome stability. After spiking with test article, microsome replicates were placed in a 37° C. incubator with the following time course: 0, 5, 10, 15, 20, 30, 45 and 60 minutes. Samples were extracted with a protein precipitation quench consisting of ice cold acetonitrile containing internal standard (tolbutamide). Samples were analyzed for ulixertinib, Formula 18, Formula 19, and Formula 21. The half-lives of ulixertinib, Formula 18, Formula 19, and Formula 21 were characterized by the […] to determine the elimination rate (ke) and using the formula described below.
[formula] • ke (elimination rate): the slope of ln(percent remaining) vs time (in minutes)

The test system of a further series is CYP3A4 mRNA expression. The experiment in a line: In-vitro CYP induction study, CYP3A4 mRNA in cultured human hepatocytes. To be noted: 20 μM, approximately 24 h.
The test system of another series is CYP2B6 mRNA expression. The experiment in a line: In-vitro CYP induction study, CYP2B6 mRNA in cultured human hepatocytes. Conditions: 20 μM, approximately 24 h.
The subject of a further series is CYP1A2 mRNA expression. The experiment in a line: In-vitro CYP induction study, CYP1A2 mRNA in cultured human hepatocytes. To be noted: approximately 24 h.
The target of a further series is T2, CYP1A2 (Homo sapiens, UniProt P05177).
T2 construct: from tissue; host or cells: human liver microsomes, mixed-gender pool of 200
T2 sequence (P05177 1-516): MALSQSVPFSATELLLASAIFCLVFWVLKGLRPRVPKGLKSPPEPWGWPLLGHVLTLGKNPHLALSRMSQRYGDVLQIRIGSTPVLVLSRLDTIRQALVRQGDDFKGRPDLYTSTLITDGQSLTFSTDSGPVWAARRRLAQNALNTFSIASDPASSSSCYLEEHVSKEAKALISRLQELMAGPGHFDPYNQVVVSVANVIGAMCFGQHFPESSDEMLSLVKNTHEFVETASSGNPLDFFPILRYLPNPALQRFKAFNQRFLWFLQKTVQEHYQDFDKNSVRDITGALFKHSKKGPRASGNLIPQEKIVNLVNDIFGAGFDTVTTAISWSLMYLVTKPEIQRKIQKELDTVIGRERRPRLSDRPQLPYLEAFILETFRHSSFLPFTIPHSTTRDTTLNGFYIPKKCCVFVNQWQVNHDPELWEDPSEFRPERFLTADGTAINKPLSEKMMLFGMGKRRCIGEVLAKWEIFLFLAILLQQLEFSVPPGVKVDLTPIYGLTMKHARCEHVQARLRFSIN
The experiment in a line: In-vitro CYP inhibition study, CYP1A2. Format: in vitro ADME. Conditions: human liver microsomes, substrate Phenacetin (90 μM). The protocol: as §1, §2

For the next series, the target named is T3, CYP2D6 (Homo sapiens, UniProt P10635).
T3 construct: from tissue; host or cells: human liver microsomes, mixed-gender pool of 200
The experiment in a line: In-vitro CYP inhibition study, CYP2D6. The format is in vitro ADME. Conditions: human liver microsomes, substrate Dextramethorphan (10 μM). Here is the method:
as §1, §2

The mark [2] stands for this setting: Rep 1, read-out: Half-life, t½, Rep 1.
Setting [3] is: Rep 2, read-out: Half-life, t½, Rep 2.
Setting [4] is: Rep 3, read-out: Half-life, t½, Rep 3.
Setting [5] is: Rep 4, read-out: Half-life, t½, Rep 4.
Where [6] appears, read: Rep 5, read-out: Half-life, t½, Rep 5.
[7] abbreviates: Rep 6, read-out: Half-life, t½, Rep 6.
Where [8] appears, read: six replicates, read-out: Half-life, t½, Mean ± SD.

Like-named read-outs stand apart in the source and are kept apart here.

For orientation: IC50 means the concentration at which inhibition is half-maximal. Low values mean greater potency, high ones weaker potency. For orientation: half-life means the time in which the quantity being followed falls by half.

T1 sequence (P11712 whole entry): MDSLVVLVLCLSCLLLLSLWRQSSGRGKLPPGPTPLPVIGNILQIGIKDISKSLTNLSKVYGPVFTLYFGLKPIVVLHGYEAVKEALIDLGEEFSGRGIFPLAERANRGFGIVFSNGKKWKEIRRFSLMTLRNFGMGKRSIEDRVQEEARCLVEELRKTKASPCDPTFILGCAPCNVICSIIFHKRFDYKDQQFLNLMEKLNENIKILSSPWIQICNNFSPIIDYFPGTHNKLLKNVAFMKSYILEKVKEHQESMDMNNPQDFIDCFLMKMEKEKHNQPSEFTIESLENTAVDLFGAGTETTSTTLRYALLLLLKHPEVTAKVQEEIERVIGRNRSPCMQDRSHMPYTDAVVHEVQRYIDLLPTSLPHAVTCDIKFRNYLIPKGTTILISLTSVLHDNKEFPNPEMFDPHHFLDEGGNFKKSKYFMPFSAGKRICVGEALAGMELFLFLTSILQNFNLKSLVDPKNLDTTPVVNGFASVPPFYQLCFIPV
T3 sequence (P10635 whole entry): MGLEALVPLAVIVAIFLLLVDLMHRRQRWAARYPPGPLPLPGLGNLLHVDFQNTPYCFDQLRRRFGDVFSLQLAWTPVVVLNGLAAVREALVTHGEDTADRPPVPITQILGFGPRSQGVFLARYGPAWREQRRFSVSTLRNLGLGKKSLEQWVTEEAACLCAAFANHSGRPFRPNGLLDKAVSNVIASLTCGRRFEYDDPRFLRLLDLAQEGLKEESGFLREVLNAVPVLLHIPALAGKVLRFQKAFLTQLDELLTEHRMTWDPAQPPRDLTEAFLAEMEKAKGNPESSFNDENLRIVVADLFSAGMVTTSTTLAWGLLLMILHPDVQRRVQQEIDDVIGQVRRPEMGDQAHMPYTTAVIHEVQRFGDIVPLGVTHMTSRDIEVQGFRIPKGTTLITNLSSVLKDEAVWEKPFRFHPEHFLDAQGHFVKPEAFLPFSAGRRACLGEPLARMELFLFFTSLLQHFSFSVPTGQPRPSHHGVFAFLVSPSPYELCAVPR
Protocol for CYP1A2 mRNA expression: (§3) A single preparation of characterized cryopreserved human hepatocytes isolated from non-transplantable human livers was treated in this study. Triplicate wells for each of the cultures were treated in 48-well plates with supplemented MCM (37±2° C.) containing 0.1% v/v DMSO (solvent control), one of three concentrations of each test article (1, 10 and 20 μM) or positive control CYP enzyme inducers omeprazole (50 μM), phenobarbital (1000 μM) or rifampin (20 μM). The cultures were incubated in a humidified culture chamber (37±2° C. at 95% relative humidity, 95/5% air/CO2). Approximately 24 h after treatment, hepatocytes were lysed in Buffer RLT reagent containing β-mercaptoethanol (100:1). The medium was aspirated, and Buffer RLT was added to each well. The cell lysates were prepared by repeated pipetting and shaking. Total RNA was isolated using the RNeasy Mini Kit. RNA quality and concentration were determined by measuring absorbance at 260 and 280 nm on a plate reader. Single-stranded cDNA was prepared from RNA with the RT Master Mix. The RT Master Mix comprises 10×RT buffer, 25× deoxyNTPs, 10× Random primers, RNase Inhibitor (20 U/μL), MultiScribe reverse transcriptase (50 U/μL) and RNase-free water. The RT Master Mix was added to each RNA sample to complete the components of the reaction. No template controls (NTCs) were included in the analysis. For the NTC reactions, RNase-free water was added in place of the RNA sample. The prepared cDNA samples were stored at −20±5° C. following analysis by qRT-PCR. Each PCR was performed in quadruplicate. A Primer Mix was prepared for each Gene Expression assay. A typical Primer Mix contained TaqMan Fast Advanced Master Mix (1×), Gene Expression Assay (1×, 900 nM forward and reverse primers) and RNase-free water. The Reaction Mix was prepared by adding the Primer Mix to cDNA. A percentage of samples (no less than 10%) included NAC (no amplification control) samples. […] Reactions were analyzed on a PCR sequence detection system. The relative quantity of the target cDNA compared with that of the control cDNA (GAPDH) was determined by the ΔΔCt method. Relative quantitation measures the change in mRNA expression in a test sample relative to that in a control sample (e.g., DMSO). This method assumes that the efficiency of the target amplification and the efficiency of the endogenous control amplification are approximately equal.
Protocol for CYP2B6 mRNA expression: as §3
Protocol for CYP3A4 mRNA expression: as §3

Regarding `[2H]C([2H])([2H])C(Nc1cc(-c2c[nH]c(C(=O)N[C@H](CO)c3cccc(Cl)c3)c2)c(Cl)cn1)C([2H])([2H])[2H]` [Formula 19, 4-(5-chloro-2-((propan-2-yl-1,1,1,3,3,3-d6)amino)pyridin-4-yl)-N-(1-(3-chiorophenyl)-2-hydroxyethyl)-1H-pyrrole-2-carboxamide], the IC50 was 3.1 µM against CYP2C9 (preincubation 0 min); 4.3 µM at CYP2C9 (preincubation 30 min); above 20 µM against CYP1A2 (preincubation 0 min); 19 µM at CYP1A2 (preincubation 30 min); above 20 µM against CYP2D6 (preincubation 30 min). Further, the “shorter half-life compared to ulixertinib” value in series [1] (Table 5) turned out to be 7%. The half-life at 1 μM in series [1] (setting [2]) was 43.4 min; in series [1] (setting [3]) it was 45.2 min; in series [1] (setting [4]), 46.1 min; in series [1] (setting [5]) it was 44.9 min; in series [1] (setting [6]), 47.8 min; in series [1] (setting [7]) it was 44.9 min. Further, in series [1] (setting [8]), the half-life at 1 μM is 45.4 ± 1.5 min. In addition, the “Half-life, % change relative to ulixertinib” value in series [1] is “(−7%)”. Moreover, the “Fold Change in mRNA Expression of CYP3A4” value in the series on CYP3A4 mRNA expression was 11.7 fold. The “Fold Change in mRNA Expression of CYP2B6” value in the series with CYP2B6 mRNA expression is recorded as 2.44 fold. In the series with CYP1A2 mRNA expression (10 μM), the “Fold Change in mRNA Expression of CYP1A2” value turned out to be 12.1 fold. This molecule showed a half-inhibitory concentration (IC50) at 5 min on CYP2D6 (both sexes, human, pH 7.4, probe Dextramethorphan (10 μM), preincubation 0 min) of 20 µM.

As to `[2H]C([2H])([2H])C([2H])(Nc1cc(-c2c[nH]c(C(=O)N[C@H](CO)c3cccc(Cl)c3)c2)c(Cl)cn1)C([2H])([2H])[2H]` [Formula 18, 4-(5-chloro-2-((propan-2-yl-d7)amino)pyridin-4-yl)-N-(1-(3-chlorophenyl)-2-hydroxyethyl)-1H-pyrrole-2-carboxamide], the IC50 against CYP2C9 (preincubation 0 min) was 3.5 µM; at CYP2C9 (preincubation 30 min), 3.9 µM; on CYP1A2 (preincubation 0 min) it was above 20 µM; against CYP1A2 (preincubation 30 min) it was 17 µM; against CYP2D6 (preincubation 0 min) it was above 20 µM; against CYP2D6 (preincubation 30 min), 19 µM. Besides, in series [1] (Table 5), the “longer half-life than ulixertinib” value was 21%. For the same molecule, the half-life at 1 μM in series [1] (setting [2]) was 59.2 min; in series [1] (setting [3]), 58.7 min; in series [1] (setting [4]), 60.6 min; in series [1] (setting [5]) it was 55.8 min; in series [1] (setting [6]), 57.5 min; in series [1] (setting [7]), 62 min. For the same molecule, the half-life at 1 μM in series [1] (setting [8]) amounted to 59 ± 2.2 min. In addition, in series [1], the “Half-life, % change relative to ulixertinib” value is recorded as “(+21%)”. The “Fold Change in mRNA Expression of CYP3A4” value in the series on CYP3A4 mRNA expression came out at 7.06 fold. The “Fold Change in mRNA Expression of CYP2B6” value with CYP2B6 mRNA expression is reported as 2.54 fold. Moreover, the “Fold Change in mRNA Expression of CYP1A2” value in the series with CYP1A2 mRNA expression (20 μM) was found to be 7.56 fold.

With `Cl.[2H]C(C)(C)Nc1cc(-c2c[nH]c(C(=O)N[C@H](CO)c3cccc(Cl)c3)c2)c(Cl)cn1` [Formula 21A], the half-inhibitory concentration (IC50) on CYP2C9 (preincubation 0 min) was 3.4 µM; on CYP2C9 (preincubation 30 min), 4.4 µM; against CYP1A2 (preincubation 0 min), above 20 µM; on CYP1A2 (preincubation 30 min), above 20 µM; against CYP2D6 (preincubation 0 min), above 20 µM; at CYP2D6 (preincubation 30 min), above 20 µM. For the same molecule, the “Fold Change in mRNA Expression of CYP3A4” value in the series with CYP3A4 mRNA expression is reported as 6.86 fold. Further, the “Fold Change in mRNA Expression of CYP2B6” value with CYP2B6 mRNA expression is on record as 2.22 fold. In addition, the figures for the “Fold Change in mRNA Expression of CYP1A2” value in the series on CYP1A2 mRNA expression (1 μM) and with CYP1A2 mRNA expression (10 μM) were 2.22 fold and 8.51 fold, respectively.

Consider `CC(C)Nc1cc(-c2c[nH]c(C(=O)N[C@H](CO)c3cccc(Cl)c3)c2)c(Cl)cn1` [Ulixertinib, reference compound], for which the IC50 on CYP2C9 (preincubation 0 min) was 3.1 µM; against CYP2C9 (preincubation 30 min), 3.4 µM; against CYP1A2 (preincubation 0 min), above 20 µM; against CYP1A2 (preincubation 30 min) it was 13 µM; against CYP2D6 (preincubation 0 min) it was above 20 µM; against CYP2D6 (preincubation 30 min) it was 18 µM. In addition, the half-life at 1 μM in series [1] (setting [2]) is 49.2 min; in series [1] (setting [3]) it was 51.2 min; in series [1] (setting [4]), 50.3 min; in series [1] (setting [5]), 46.2 min; in series [1] (setting [6]), 48.5 min; in series [1] (setting [7]) it was 48.1 min. In series [1] (setting [8]), the half-life at 1 μM worked out at 48.9 ± 1.8 min. Further, the “Fold Change in mRNA Expression of CYP3A4” value in the series with CYP3A4 mRNA expression was 8.26 fold. The “Fold Change in mRNA Expression of CYP2B6” value with CYP2B6 mRNA expression is listed as 2.43 fold. The “Fold Change in mRNA Expression of CYP1A2” value with CYP1A2 mRNA expression (10 μM) was determined as 6.63 fold.

Source of the values: US20250026733A1, “DEUTERATED ANALOGS OF PYROLE INHIBITORS OF ERK, SYNTHESIS THEREOF AND INTERMEDIATES THERETO” (BIOMED VALLEY DISCOVERIES, INC., priority 2022, published 2025).
